Values after ≈ are worked out from the molar mass of the structure shown.

In assay [1] the test system is Escherichia coli. Description: microbe, parasite or virus in culture. As to conditions: ATCC 25922.
The subject of assay [2] is Escherichia coli. Kind of assay: Antimicrobial activity against Escherichia coli isolate 16 harboring bla CTX-M-3a gene by broth microdilution method. In kind it is functional. Background: Broth dilution looks for growth in wells or tubes with falling amounts of substance.
Assay [3] deals with Escherichia coli. Kind of assay: Antimicrobial activity against Escherichia coli isolate 49 harboring bla CTX-M-3a gene by broth microdilution method. The format is functional.
Assay [4] concerns Escherichia coli. Kind of assay: Antimicrobial activity against Escherichia coli isolate 49 harboring bla CTX-M-3a gene by broth microdilution method in presence of Tazobactam. In kind it is functional.
In assay [5] the test system is Escherichia coli. Kind of assay: Antimicrobial activity against Escherichia coli isolate Z1 harboring bla CTX-M-3a gene by broth microdilution method. In kind it is functional.
The test system of assay [6] is Escherichia coli. Kind of assay: Antimicrobial activity against Escherichia coli isolate 100 harboring bla CTX-M-3a gene by broth microdilution method in presence of Tazobactam. The format is functional.
The test system of assay [7] is Escherichia coli. Description: Antimicrobial activity against Escherichia coli isolate 16 harboring bla CTX-M-3a gene by broth microdilution method in presence of Tazobactam. In kind it is functional.
Assay [8] relates to Escherichia coli. Kind of assay: Antimicrobial activity against Escherichia coli isolate 36 harboring bla CTX-M-3a gene by broth microdilution method in presence of Tazobactam. In kind it is functional.
For assay [9], the system named is Escherichia coli. Description: Antimicrobial activity against Escherichia coli isolate 86 harboring bla CTX-M-3a gene by broth microdilution method in presence of Tazobactam. In kind it is functional.
Assay [10] deals with Escherichia coli. Description: Antimicrobial activity against Escherichia coli isolate 32 harboring bla CTX-M-3a gene by broth microdilution method. The format is functional.
Assay [11] deals with Escherichia coli. Description: Antimicrobial activity against Escherichia coli isolate 100 harboring bla CTX-M-3a gene by broth microdilution method. The format is functional.
Assay [12] concerns Escherichia coli. Kind of assay: Antimicrobial activity against Escherichia coli isolate 32 harboring bla CTX-M-3a gene by broth microdilution method in presence of Tazobactam. The format is functional.
The test system of assay [13] is Escherichia coli. Kind of assay: Antimicrobial activity against Escherichia coli ATCC 25922 harboring bla CTX-M-3a gene by broth microdilution method in presence of Tazobactam. In kind it is functional.
In assay [14] the test system is Escherichia coli. Description: Antimicrobial activity against Escherichia coli isolate 86 harboring bla CTX-M-3a gene by broth microdilution method. The format is functional.
Assay [15] concerns Escherichia coli. Description: Antimicrobial activity against Escherichia coli isolate 36 harboring bla CTX-M-3a gene by broth microdilution method. The format is functional.
For assay [16], the system named is Escherichia coli. Kind of assay: Antimicrobial activity against Escherichia coli isolate 49 harboring bla CTX-M-3a gene by broth microdilution method in presence of clavulanic acid.
For assay [17], the system named is Escherichia coli. Description: Antimicrobial activity against Escherichia coli isolate 100 harboring bla CTX-M-3a gene by broth microdilution method in presence of clavulanic acid.
Assay [18] concerns Escherichia coli. Kind of assay: Antimicrobial activity against Escherichia coli isolate 16 harboring bla CTX-M-3a gene by broth microdilution method in presence of clavulanic acid.
For assay [19], the system named is Escherichia coli. Kind of assay: Antimicrobial activity against Escherichia coli isolate Z1 harboring bla CTX-M-3a gene by broth microdilution method in presence of clavulanic acid.
Assay [20] concerns Escherichia coli. Kind of assay: Antimicrobial activity against Escherichia coli isolate 32 harboring bla CTX-M-3a gene by broth microdilution method in presence of clavulanic acid.
The test system of assay [21] is Escherichia coli. Kind of assay: Antimicrobial activity against Escherichia coli ATCC 25922 harboring bla CTX-M-3a gene by broth microdilution method in presence of clavulanic acid. In kind it is functional.
Assay [22] concerns Escherichia coli. Description: Antimicrobial activity against Escherichia coli isolate 36 harboring bla CTX-M-3a gene by broth microdilution method in presence of clavulanic acid.
Assay [23] relates to Escherichia coli. Kind of assay: Antimicrobial activity against Escherichia coli isolate 86 harboring bla CTX-M-3a gene by broth microdilution method in presence of clavulanic acid.

For the compound `CCN1CCN(C(=O)N[C@@H](C(=O)N[C@@H]2C(=O)N3[C@@H]2SC(C)(C)[C@@H]3C(=O)O)c2ccccc2)C(=O)C1=O` [PIPERACILLIN], the MIC was 2 µg/mL (≈ 3.86 µM) in the assay on Escherichia coli [1]; 256 µg/mL (≈ 495 µM) against Escherichia coli [2]; 64 µg/mL (≈ 124 µM) against Escherichia coli [3]; 8 µg/mL in the assay with Escherichia coli [4]; over 1020 µg/mL in the assay with Escherichia coli [5]; 4 µg/mL in the assay on Escherichia coli [6]. Besides, the MIC was 2 µg/mL with Escherichia coli [7]; 4 µg/mL with Escherichia coli [8]; over 128 µg/mL in the assay with Escherichia coli [9]; over 1020 µg/mL against Escherichia coli [10]; over 1020 µg/mL with Escherichia coli [11]; 16 µg/mL with Escherichia coli [12]. Moreover, the MIC is 2 µg/mL with Escherichia coli [13], over 1020 µg/mL in the assay on Escherichia coli [14] and over 1020 µg/mL in the assay with Escherichia coli [15].

Regarding `CC1(C)S[C@@H]2[C@H](NC(=O)[C@H](N)c3ccccc3)C(=O)N2[C@H]1C(=O)O` [AMPICILLIN], the MIC is 4 µg/mL (≈ 11.4 µM) against Escherichia coli [1]; over 1020 µg/mL in the assay with Escherichia coli [2]; over 1020 µg/mL against Escherichia coli [3]; over 1020 µg/mL in the assay on Escherichia coli [5]; over 1020 µg/mL in the assay with Escherichia coli [10]; over 1020 µg/mL with Escherichia coli [11]. Besides, the MIC in the assay on Escherichia coli [14] and in the assay with Escherichia coli [15] was over 1020 µg/mL in each case.

Consider `CO/N=C(\C(=O)N[C@@H]1C(=O)N2C(C(=O)[O-])=C(C[N+]3(C)CCCC3)CS[C@H]12)c1csc(N)n1`, for which the MIC in the assay on Escherichia coli [2] stood at 128 µg/mL (≈ 266 µM); against Escherichia coli [3], 8 µg/mL (≈ 16.6 µM); in the assay with Escherichia coli [5] it was 64 µg/mL (≈ 133 µM); against Escherichia coli [11], 32 µg/mL (≈ 66.6 µM); against Escherichia coli [14], 512 µg/mL (≈ 1070 µM); in the assay on Escherichia coli [15], 256 µg/mL (≈ 533 µM).

Turning to `O=C(O)c1cn(C2CC2)c2cc(N3CCNCC3)c(F)cc2c1=O` [CIPROFLOXACIN], the MIC against Escherichia coli [1] is at most 0.03 µg/mL; against Escherichia coli [3] it was at most 0.03 µg/mL; against Escherichia coli [5] it was over 128 µg/mL.

Take `CO[C@@]1(NC(=O)Cc2cccs2)C(=O)N2C(C(=O)O)=C(COC(N)=O)CS[C@@H]21` [CEFOXITIN]: the MIC with Escherichia coli [1] worked out at 4 µg/mL (≈ 9.36 µM); in the assay on Escherichia coli [2], 4 µg/mL (≈ 9.36 µM); against Escherichia coli [3], 2 µg/mL (≈ 4.68 µM); in the assay with Escherichia coli [5], 16 µg/mL (≈ 37.4 µM); against Escherichia coli [10] it was 16 µg/mL (≈ 37.4 µM); against Escherichia coli [11] it was 8 µg/mL (≈ 18.7 µM). The results for the MIC with Escherichia coli [14] and in the assay with Escherichia coli [15] were 16 µg/mL (≈ 37.4 µM) and 8 µg/mL (≈ 18.7 µM), respectively.

As to `CO/N=C(\C(=O)N[C@@H]1C(=O)N2C(C(=O)O)=C(COC(C)=O)CS[C@H]12)c1csc(N)n1` [CEFOTAXIME], the MIC is 0.06 µg/mL (≈ 0.132 µM) against Escherichia coli [1]; 64 µg/mL (≈ 141 µM) in the assay with Escherichia coli [2]; 0.06 µg/mL with Escherichia coli [16]; 0.06 µg/mL with Escherichia coli [17]; 128 µg/mL (≈ 281 µM) in the assay on Escherichia coli [3]; over 1020 µg/mL with Escherichia coli [5]. Besides, the MIC with Escherichia coli [18] is 0.125 µg/mL; in the assay on Escherichia coli [19], 0.5 µg/mL; with Escherichia coli [20], 0.06 µg/mL; with Escherichia coli [21], at most 0.03 µg/mL; against Escherichia coli [10], over 1020 µg/mL; against Escherichia coli [11], 128 µg/mL (≈ 281 µM). Besides, the MIC with Escherichia coli [22] is 0.06 µg/mL; in the assay with Escherichia coli [23] it was 0.125 µg/mL; against Escherichia coli [14], over 1020 µg/mL; against Escherichia coli [15], 512 µg/mL (≈ 1120 µM).

For the compound `C[C@@H](O)[C@H]1C(=O)N2C(C(=O)O)=C(SCCNC=N)C[C@H]12` [IMIPENEM ANHYDROUS], the MIC with Escherichia coli [3] amounted to 0.06 µg/mL (≈ 0.2 µM); against Escherichia coli [5], 1 µg/mL (≈ 3.34 µM); against Escherichia coli [10], 0.25 µg/mL (≈ 0.835 µM); with Escherichia coli [11] it was 0.5 µg/mL (≈ 1.67 µM); against Escherichia coli [15] it was 0.25 µg/mL (≈ 0.835 µM).

Regarding `C[C@@H](O)[C@H]1C(=O)N2C(C(=O)O)=C(S[C@@H]3CN[C@H](C(=O)N(C)C)C3)[C@H](C)[C@H]12` [MEROPENEM], the MIC is at most 0.03 µg/mL against Escherichia coli [1]; 0.06 µg/mL (≈ 0.156 µM) with Escherichia coli [2]; 0.06 µg/mL (≈ 0.156 µM) with Escherichia coli [3]; 0.125 µg/mL (≈ 0.326 µM) in the assay on Escherichia coli [5]; 0.06 µg/mL (≈ 0.156 µM) against Escherichia coli [10]; 0.25 µg/mL (≈ 0.652 µM) with Escherichia coli [11]. Also, the MIC in the assay with Escherichia coli [14] turned out to be 0.06 µg/mL (≈ 0.156 µM); in the assay with Escherichia coli [15], 0.125 µg/mL (≈ 0.326 µM).

For GENTAMICIN, the MIC is 32 µg/mL against Escherichia coli [2]; 0.125 µg/mL against Escherichia coli [3]; over 128 µg/mL in the assay with Escherichia coli [5]; over 128 µg/mL in the assay on Escherichia coli [10]; over 128 µg/mL with Escherichia coli [11]; over 128 µg/mL with Escherichia coli [14]. The MIC against Escherichia coli [15] is 1 µg/mL.

As to `CC(C)(O/N=C(\C(=O)N[C@@H]1C(=O)N2C(C(=O)[O-])=C(C[n+]3ccccc3)CS[C@H]12)c1csc(N)n1)C(=O)O` [CEFTAZIDIME], the MIC against Escherichia coli [1] is 0.25 µg/mL (≈ 0.457 µM); in the assay with Escherichia coli [2], 1 µg/mL (≈ 1.83 µM); with Escherichia coli [16] it was 0.06 µg/mL; with Escherichia coli [17], 0.5 µg/mL; in the assay on Escherichia coli [3], 0.25 µg/mL (≈ 0.457 µM); in the assay on Escherichia coli [5], 16 µg/mL (≈ 29.3 µM). Also, the MIC in the assay on Escherichia coli [18] amounted to 0.125 µg/mL; in the assay with Escherichia coli [19] it was 1 µg/mL; with Escherichia coli [20], 0.5 µg/mL; in the assay with Escherichia coli [21], 0.125 µg/mL; in the assay with Escherichia coli [10] it was 4 µg/mL (≈ 7.32 µM); against Escherichia coli [11] it was 4 µg/mL (≈ 7.32 µM). Also, the MIC amounted to 0.25 µg/mL in the assay with Escherichia coli [22], 0.5 µg/mL in the assay with Escherichia coli [23], 8 µg/mL (≈ 14.6 µM) against Escherichia coli [14] and 4 µg/mL (≈ 7.32 µM) with Escherichia coli [15].

For the compound `CO/N=C(\C(=O)N[C@@H]1C(=O)N2C(C(=O)O)=C(CSc3nc(=O)c(O)nn3C)CS[C@H]12)c1csc(N)n1` [CEFTRIAXONE], the MIC against Escherichia coli [1] was 0.06 µg/mL (≈ 0.108 µM); in the assay on Escherichia coli [2], over 1020 µg/mL; in the assay on Escherichia coli [3] it was 128 µg/mL (≈ 231 µM); in the assay with Escherichia coli [5], over 1020 µg/mL; with Escherichia coli [10], over 1020 µg/mL; in the assay on Escherichia coli [11], over 1020 µg/mL. The MIC in the assay with Escherichia coli [14] and against Escherichia coli [15] was over 1020 µg/mL in each case.

As for `NCC[C@H](O)C(=O)N[C@@H]1C[C@H](N)[C@@H](O[C@H]2O[C@H](CN)[C@@H](O)[C@H](O)[C@H]2O)[C@H](O)[C@H]1O[C@H]1O[C@H](CO)[C@@H](O)[C@H](N)[C@H]1O` [AMIKACIN], the MIC in the assay with Escherichia coli [1] was 1 µg/mL (≈ 1.71 µM); in the assay with Escherichia coli [2], 64 µg/mL (≈ 109 µM); against Escherichia coli [3], at most 0.03 µg/mL; against Escherichia coli [5], over 128 µg/mL; against Escherichia coli [10], 16 µg/mL (≈ 27.3 µM); with Escherichia coli [11] it was over 128 µg/mL. The MIC against Escherichia coli [14] was determined as 4 µg/mL (≈ 6.83 µM); against Escherichia coli [15], 2 µg/mL (≈ 3.42 µM).

Regarding `CC1(C)S[C@@H]2[C@H](NC(=O)[C@H](N)c3ccc(O)cc3)C(=O)N2[C@H]1C(=O)O` [AMOXICILLIN], the MIC in the assay on Escherichia coli [1] was determined as 4 µg/mL (≈ 10.9 µM); against Escherichia coli [2] it was 4 µg/mL (≈ 10.9 µM); with Escherichia coli [3] it was 1 µg/mL (≈ 2.74 µM); against Escherichia coli [5], 32 µg/mL (≈ 87.6 µM); in the assay on Escherichia coli [10], 8 µg/mL (≈ 21.9 µM); against Escherichia coli [11], 8 µg/mL (≈ 21.9 µM). Besides, the MIC in the assay on Escherichia coli [14] and against Escherichia coli [15] was 8 µg/mL (≈ 21.9 µM) throughout.

The values above are taken from ChEMBL document CHEMBL1629672, “blaCTX-M genes in escherichia coli strains from Croatian Hospitals are located in new (blaCTX-M-3a) and widely spread (blaCTX-M-3a and blaCTX-M-15) genetic structures” (2009).
